Results: publication PMC7699892, “Repositioned Drugs for Chagas Disease Unveiled via Structure-Based Drug Repositioning” (International Journal of Molecular Sciences, 2020)
Read-outs that look alike come from different tables or passages of the source. One block for each molecule: values may come before it.

Legend:
[1] = system: T. cruzi blood trypomastigote (Ninoa strain); assay: ex vivo evaluation against blood trypomastigotes, Ninoa strain; assay type: cell-based; details: Trypanosoma cruzi, 24 h at 4 °C
Text: (§1) The high-priority hit drugs were subjected to experimental validation in vitro, ex vivo, and in vivo, together with a cytotoxicity assay. Ninoa and INC-5 strains of T. cruzi were used in this study. The Ninoa strain was obtained in 1986 by xenodiagnoses from an acute case of Chagas’ disease in Oaxaca, Mexico, whereas the INC-5 strain was obtained in 1997 from a chronic case of Chagas’ disease in a person in Guanajuato, Mexico.
(§2) Ex vivo evaluation of different FDA-approved drugs against Trypanosoma cruzi blood trypomastigotes. The ex vivo evaluation of the trypanocidal activity of the FDA-approved drugs was carried out according to the methodology described above. Blood from parasite infected animals was obtained from intracardiac puncture and diluted with phosphate-buffered saline (PBS), pH 7.2, until a concentration of 2 × 10^6 blood trypomastigotes/mL was obtained. From this, 195 µL of blood/well was placed in a 96-well plate and incubated at 4 °C for 24 h with 5 µL of each drug tested at different concentrations (5 µg/mL to […]). […] After incubation, live parasites were counted in a Neubauer chamber and the IC50 was calculated. Three independent experiments by triplicate were performed.

[2] = system: T. cruzi epimastigote (Ninoa strain); assay: in vitro evaluation against epimastigotes, Ninoa strain (resazurin); assay type: cell-based; details: Trypanosoma cruzi, 48 h at 28 °C
Text: (§3) The high-priority hit drugs were subjected to experimental validation in vitro, ex vivo, and in vivo, together with a cytotoxicity assay. Ninoa and INC-5 strains of T. cruzi were used in this study. […] In vitro evaluation of different FDA-approved drugs against Trypanosoma cruzi epimastigotes. The epimastigote stage of Ninoa and INC5 strains of T. cruzi were used to evaluated the in vitro trypanocidal activity of different FDA-approved drugs. Both strains were maintained in liver infusion tryptose (LIT) medium, supplemented with 10% fetal bovine serum (FBS) and 0.1% penicillin–streptomycin. They were preserved by transferring 1 × 10^6 parasites/mL into a new culture medium every week. […] All compounds were initially prepared at 10 mg/mL, using dimethyl sulfoxide (DMSO) as diluent. Serial dilutions were performed using complemented LIT medium until concentrations of 100 to 0.46 µg/mL of each drug were obtained. […] After the incubation period, 20 µL of 2.5 mM resazurin solution were added to each well and incubated for 3 h. All assays were carried out in triplicate.

[3] = system: T. cruzi Ninoa strain; assay: in vivo short-term trypanocidal activity (parasitemia) in infected CD1 mice, Ninoa strain; parameters: species or system Trypanosoma cruzi in CD1 mice; details: for Parasitemia inhibition percentage over the time, 2 horas Ninoa / Parasitemia inhibition percentage over the time, 4 horas Ninoa / Parasitemia inhibition percentage over the time, 6 horas Ninoa: 100 mg/kg oral; for parasitemia inhibition: mice infected with Ninoa strain, single oral dose 100 mg/kg, eight hours after administration
Experimental: (§4) Parasitemia was monitored at 2, 4, 6, and 8 h after administration (see Figure 2).
(§5) CD1 strain mice, 6–8 weeks old, were used to maintain Ninoa and INC-5 strains of T. cruzi. Animals were given by the University of Science and Arts of Chiapas. To maintain the strains, animals were intraperitoneally inoculated every 14 days with 1 × 10^5 blood trypomastigote, obtained from parasite-infected mice. Parasitemia was monitored every three days by the Pizzi method. For this, 5 µL of blood from the caudal vein of infected mice were deposited on a slide and evenly distributed with an 18 × 18 mm coverslip. Parasite counting was performed by observing 15 microscopic fields using a 40 × objective lens. For the in vivo short term evaluation of the trypanocidal activity of the FDA-approved drugs, six groups of six CD1 mice each with homogeneous weight and parasitemia were used.
(§6) In vivo short-term evaluation of the trypanocidal activity of the FDA-approved drugs. Six groups of six CD1 female mice were infected with blood trypomastigotes of Ninoa and INC-5 strains following the methodology previously described in Romanha et al. and in Díaz-Chiguer et al.. At day 13 post-infection, when the infected mice reached an average of 5 × 10^6 parasites/mL, a single dose of the FDA-approved drugs at 100 mg/kg body weight was orally administered. Parasitemia was monitored following the Pizzi method at 2, 4, 6, and 8 h post-treatment […] using mineral oil as a vehicle. […] Mice examination was performed as stated in the Norma Official Mexicana (NOM-062-Z00-1999), published on August 2009.

[4] = system: T. cruzi epimastigote (INC-5 strain); assay: in vitro evaluation against epimastigotes, INC-5 strain (resazurin); assay type: cell-based; details: Trypanosoma cruzi, 48 h at 28 °C
Text: as §3

[5] = system: T. cruzi blood trypomastigote (INC-5 strain); assay: ex vivo evaluation against blood trypomastigotes, INC-5 strain; assay type: cell-based; details: Trypanosoma cruzi
Text: as §1, §2

[6] = system: T. cruzi INC-5 strain; assay: in vivo short-term trypanocidal activity (parasitemia) in infected CD1 mice, INC-5 strain; parameters: species or system Trypanosoma cruzi in CD1 mice; details: for Parasitemia inhibition percentage over the time, 2 horas INC-5 / Parasitemia inhibition percentage over the time, 4 horas INC-5 / Parasitemia inhibition percentage over the time, 6 horas INC-5: 100 mg/kg oral; for parasitemia inhibition: mice infected with INC-5 strain, single oral dose 100 mg/kg, eight hours after administration
Experimental: as §4, §5, §6

[7] = system: T. cruzi; parameters: method as in per drug in column Reference of Table 2; details: class of literature evidence of trypanocidal activity; ref per drug in Table 2; cited from earlier work; for Trypan. Activity: key: ? indicates unknown activity; + indicates indirect evidence of activity; ++ indicates direct evidence of activity
[8] = system: T. brucei; parameters: method as in Nenortas et al. 70; details: ref Nenortas et al. 70; read-out: EC50, active against T. brucei in vitro; cited from earlier work
[9] = system: T. cruzi epimastigotes; parameters: method as in PMID 32560043; details: cited from earlier work
[10] = system: T. cruzi reverse transcriptase; parameters: method as in PMID 8913446; details: cited from earlier work
[11] = system: T. cruzi; parameters: method as in PMID 25033456; details: read-out: EC50, inhibition of T. cruzi growth in vitro; cited from earlier work; for Trypan. Activity: key: ? indicates unknown activity; + indicates indirect evidence of activity; ++ indicates direct evidence of activity
[12] = molecular target: T. cruzi DHFR; parameters: method as in PMID 12084467; details: read-out: Ki, inhibitor of T. cruzi DHFR; cited from earlier work
[13] = 6 horas (first column so headed)
[14] = 6 horas (second, last column so headed)
[15] = ex vivo, INC-5 strain, 24 h at 4 °C, read-out: T.cruzi blood trypomastigote IC50 INC-5

SMILES: COc1ccc2cc([C@H](C)C(=O)O)ccc2c1 [Naproxen]
IC50 [1]: 58.5 ± 0.07 µM | IC50 [2]: > 400 µM | Parasitemia inhibition percentage over the time, 2 horas Ninoa [3]: 100 | Parasitemia inhibition percentage over the time, 4 horas Ninoa [3]: 71 | Parasitemia inhibition percentage over the time, 6 horas Ninoa [3, 13]: 28.5 | Parasitemia inhibition percentage over the time, 6 horas Ninoa [3, 14]: 14.2 | parasitemia inhibition [3]: 85.8% | IC50 [4]: > 400 µM | IC50 [5, 15]: 38.3 ± 0.06 µM | Parasitemia inhibition percentage over the time, 2 horas INC-5 [6]: 100 | Parasitemia inhibition percentage over the time, 4 horas INC-5 [6]: 85.7 | Parasitemia inhibition percentage over the time, 6 horas INC-5 [6, 13]: 71.4 | Parasitemia inhibition percentage over the time, 6 horas INC-5 [6, 14]: 57.1 | parasitemia inhibition [6]: 42.9%

SMILES: CC(=O)CCCCn1c(=O)c2c(ncn2C)n(C)c1=O [Pentoxifylline]
IC50 [1]: > 100 µM | Trypan. Activity [7]: + | IC50 [2]: > 400 µM | IC50 [4]: > 400 µM | IC50 [5, 15]: > 100 µM

SMILES: O=C(O)c1cn(C2CC2)c2cc(N3CCNCC3)c(F)cc2c1=O [Ciprofloxacin]
IC50 [1]: 25.7 ± 0.04 µM | IC50 [2]: > 400 µM | Parasitemia inhibition percentage over the time, 2 horas Ninoa [3]: 100 | Parasitemia inhibition percentage over the time, 4 horas Ninoa [3]: 50 | Parasitemia inhibition percentage over the time, 6 horas Ninoa [3, 13]: 33.3 | Parasitemia inhibition percentage over the time, 6 horas Ninoa [3, 14]: 33.3 | parasitemia inhibition [3]: 66.7% | IC50 [4]: > 400 µM | IC50 [5, 15]: 21.3 ± 0.09 µM | IC50 ([5]; rounded value in the discussion, refers to Table 3, strain not stated, read-out: IC50, inhibitor of T. cruzi trypomastigotes): 21 µM | Parasitemia inhibition percentage over the time, 2 horas INC-5 [6]: 100 | Parasitemia inhibition percentage over the time, 4 horas INC-5 [6]: 75 | Parasitemia inhibition percentage over the time, 6 horas INC-5 [6, 13]: 62.5 | Parasitemia inhibition percentage over the time, 6 horas INC-5 [6, 14]: 56.2 | parasitemia inhibition [6]: 43.8% | EC50 [8]: 52 µM

SMILES: Cc1cnc(C(=O)NCCc2ccc(S(=O)(=O)NC(=O)NC3CCCCC3)cc2)cn1 [Glipizide]
growth inhibitory activity on T. cruzi epimastigotes [9]: micromolar range

IC50 [2]: > 400 µM | IC50 [4]: > 400 µM | IC50 [5, 15]: > 100 µM
SMILES: Cn1c(=O)c2[nH]cnc2n(C)c1=O [Theophylline]
IC50 [1]: > 100 µM

SMILES: Cc1cn(-c2cc(NC(=O)c3ccc(C)c(Nc4nccc(-c5cccnc5)n4)c3)cc(C(F)(F)F)c2)cn1 [Nilotinib]
growth inhibitory activity on T. cruzi epimastigotes [9]: micromolar range

SMILES: COc1ccc2c(c1)C(=O)N(CCc1ccc(S(=O)(=O)NC(=O)NC3CCCCC3)cc1)C(=O)C2(C)C [Gliquidone]
growth inhibitory activity on T. cruzi epimastigotes [9]: micromolar range

IC50 [2]: > 400 µM | IC50 [4]: > 400 µM | IC50 [5, 15]: > 100 µM
SMILES: Nc1nc2c(c(=O)[nH]1)N(C=O)C(CNc1ccc(C(=O)N[C@@H](CCC(=O)O)C(=O)O)cc1)CN2 (stereo partly shown) [Leucovorin]
IC50 [1]: > 100 µM

SMILES: O=C(Cn1ccnc1[N+](=O)[O-])NCc1ccccc1 [Benznidazole]
IC50 [1]: 156 ± 0.11 µM | IC50 [4]: 19.9 ± 0.23 µM | IC50 [5, 15]: 130.6 ± 0.08 µM

SMILES: Cc1ccc(-c2cc(C(F)(F)F)nn2-c2ccc(S(N)(=O)=O)cc2)cc1 [Celecoxib]
IC50 [1]: > 100 µM | IC50 [2]: > 400 µM | IC50 [4]: > 400 µM | IC50 [5, 15]: > 100 µM

IC50 [2]: > 400 µM | IC50 [4]: > 400 µM | IC50 [5, 15]: 21.5 ± 0.03 µM
SMILES: Nc1nc(=O)c2nc(CNc3ccc(C(=O)N[C@@H](CCC(=O)O)C(=O)O)cc3)cnc2[nH]1 [Folic acid]
IC50 [1]: 28.1 ± 0.01 µM | Parasitemia inhibition percentage over the time, 2 horas Ninoa [3]: 100 | Parasitemia inhibition percentage over the time, 4 horas Ninoa [3]: 71 | Parasitemia inhibition percentage over the time, 6 horas Ninoa [3, 13]: 42.8 | Parasitemia inhibition percentage over the time, 6 horas Ninoa [3, 14]: 42.8 | parasitemia inhibition [3]: 57.2% | Parasitemia inhibition percentage over the time, 2 horas INC-5 [6]: 100 | Parasitemia inhibition percentage over the time, 4 horas INC-5 [6]: 50 | Parasitemia inhibition percentage over the time, 6 horas INC-5 [6, 13]: 33.3 | Parasitemia inhibition percentage over the time, 6 horas INC-5 [6, 14]: 33.3 | parasitemia inhibition [6]: 66.7%

SMILES: Cc1cn([C@H]2C[C@H](N=[N+]=[N-])[C@@H](CO)O2)c(=O)[nH]c1=O [Zidovudine]
Trypan. Activity [7]: ++ | inhibition of T. cruzi reverse transcriptase [10]: does not inhibit

SMILES: CCc1nc(N)nc(N)c1-c1ccc(Cl)cc1 [Pyrimethamine]
EC50 [11]: 3.8 µM | Trypan. Activity [7]: ++ | Ki [12]: 0.1 µM

IC50 [2]: 7.09 ± 0.12 µM | IC50 [4]: 6.47 ± 0.42 µM | IC50 [5, 15]: 115.2 ± 0.17 µM
SMILES: CC1CS(=O)(=O)CCN1/N=C/c1ccc([N+](=O)[O-])o1 (stereo not shown) [Nifurtimox]
IC50 [1]: 167.1 ± 0.03 µM | Parasitemia inhibition percentage over the time, 2 horas Ninoa [3]: 100 | Parasitemia inhibition percentage over the time, 4 horas Ninoa [3]: 50 | Parasitemia inhibition percentage over the time, 6 horas Ninoa [3, 13]: 27.0 | Parasitemia inhibition percentage over the time, 6 horas Ninoa [3, 14]: 22.2 | parasitemia inhibition [3]: 77.8% | Parasitemia inhibition percentage over the time, 2 horas INC-5 [6]: 100 | Parasitemia inhibition percentage over the time, 4 horas INC-5 [6]: 66.6 | Parasitemia inhibition percentage over the time, 6 horas INC-5 [6, 13]: 55.5 | Parasitemia inhibition percentage over the time, 6 horas INC-5 [6, 14]: 27.7 | parasitemia inhibition [6]: 72.3%

IC50 [2]: > 400 µM | IC50 [4]: > 400 µM | IC50 [5, 15]: > 100 µM
SMILES: N[C@@H](CCC(=O)N[C@@H](CS)C(=O)NCC(=O)O)C(=O)O [Glutathione]
IC50 [1]: > 100 µM

SMILES: COc1ccc(Cl)cc1C(=O)NCCc1ccc(S(=O)(=O)NC(=O)NC2CCCCC2)cc1 [Glyburide]
growth inhibitory activity on T. cruzi epimastigotes [9]: micromolar range
